The text below walks through data of a melting point compilation (Tetko et al.; mined from patent text by program, amines drawn as free bases though some values may be those of a salt).

What is called melting point is the temperature of the solid-liquid transition. `Cc1cc(SC(C)C)c(NC(=O)CCCCCCCSc2nc3ccccc3s2)c(SC(C)C)n1` had a melting point of 107 to 108 °C.

`Cc1ccc(-c2ccccc2)c(O)c1-c1ccccc1` yielded a melting point of 279 to 280 °C.

As for `CCn1c(C#N)ccc1-c1ccc2c(c1)C(C)(C)OC(=S)N2`, the melting point lay within 212 to 213 °C.

`CON(C)C(=O)c1ccc(C(F)(F)F)cc1O` registered a melting point of 69 to 70 °C.

For the compound `CN(C)CC(=O)N1CCN(Cc2ccc3c(c2)Cc2c(-c4ccsc4)n[nH]c2-3)CC1`, the melting point fell in the range of 190 to 192 °C.

On to `CC1=C(OC(=O)C(C)(C)C)C2=C(O)N(I)CN(OC(=O)C(C)(C)C)C2=N1`, for which the melting point is 155 °C.

As to `N#Cc1ccc(-c2ccccc2OCC2CC2)[nH]c1=O`, the melting point was in the range of 250 to 252 °C.

In the case of `CC(C)(CO)NS(=O)(=O)c1ccc(Cl)c(N)c1`, the melting point amounted to 108 °C.

For `Cc1oc(C2(C)CC=CCC2)nc1CC(=O)O` (configuration not stated), the melting point fell in the range of 144 to 145 °C.

`COc1cc2c(Nc3cccc(Cl)c3F)ncnc2cc1OC1CCN(C(=O)CC(C)(C)O)CC1` returned a melting point of 196 to 199 °C.

In turn, `Oc1cc(-c2ncc(C(F)(F)F)cc2Cl)ccc1Cl` displayed a melting point of 105 to 107 °C.

`CC(=O)NC[C@H]1CN(c2ccc(N3CCC(CC#N)CC3)cc2)C(=O)O1` had a melting point of 150 to 152 °C.

In turn, `Cn1cc(-n2c(-c3cccc(F)c3)nc3c(Cl)ncnc32)ccc1=O` had a melting point of 219 °C.

`COCC1(C)CCCOc2cc(/C=C/c3ccc(C(=O)O)cc3)ccc21` (configuration not stated) registered a melting point of 194 to 196 °C.

In turn, `Cc1cc([N+](=O)[O-])ccc1N1CCOCC1` showed a melting point of 147 to 150 °C.

On to `CCOc1ccc(F)c(N=Cc2cnc(SC)nc2NC2CCCC2)c1F`, for which the melting point lay in the range of 136 to 141 °C.

As for `CCOC(=O)CCc1c[nH]c2cnc(-n3cncn3)cc12`, the melting point was in the range of 129 to 131 °C.

With `COc1ccc(-c2ncccc2OC2SCC(O)C(O)C2O)cc1` (configuration not stated), the melting point was 137 °C.

On to `Cc1cn(C(C)C(=O)N(C)C)nc1-c1ccc(Cl)c(Cl)c1` (configuration not stated), for which the melting point was 109 to 110 °C.

`CCSc1ncn(-c2ccc(O)cc2)n1` showed a melting point of 170 °C.

The compound `CCOC(=O)NN=Cc1c[nH]c(C)n1` registered a melting point of 210 to 212 °C.

In turn, `CCCc1c(OCCCOc2cccc(NC(=O)C(=O)OCC)c2)ccc(C(C)=O)c1O` yielded a melting point of 52 to 57 °C.

Compound `CCCCCCCCCCCCCCCCCCOc1ccc(OCCCc2ccccc2)c(C(=O)O)c1` displayed a melting point of 68 to 70 °C.

`Cc1cc(Br)cnc1NCCCNC1=NS(=O)N=C1N` (configuration not stated) displayed a melting point of 204 to 205 °C.

`CN1CCN(c2nc3c(cc2F)c(=O)c(C(=O)O)cn3C2CSC2)CC1`: the melting point lay within 270 to 280 °C.

As to `CCCCCCCCC(O)CNCCCNCC(O)CCCCCCCC` (configuration not stated), the melting point was 104 to 108 °C.

As to `CNC(=O)CN1CCc2cc(Nc3ncc(Cl)c(Nc4c(F)cccc4C(=O)NC)n3)c(OC)cc2CC1`, the melting point lay in the range of 119 to 130 °C.

Consider `Cc1ccc2cc(-c3ccc(F)cc3F)ccc2n1`, for which the melting point is 86 °C.

As for `O=C(NOC1CCCCO1)c1ccc(C(=O)Nc2cccc(Nc3nc(-c4cccnc4)cs3)c2)cc1` (configuration not stated), the melting point was 224 °C.

On to `CC(=O)c1coc2cc(NS(C)(=O)=O)c(Oc3ccccc3)cc2c1=O`, for which the melting point fell in the range of 175 to 177 °C.

`O=C(Nc1nccs1)c1c(C(F)(F)F)nc(-c2cccs2)c(-c2ccccc2)c1O` returned a melting point of 136 °C.

Take `CCCc1nc2c(N)nc3ccc(-c4ccc(CN)cc4)cc3c2s1`: the melting point fell in the range of 225 to 226 °C.

In turn, `CCOCCOc1ccc(OCC(O)CNCCNC(=O)N2CCOCC2)cc1` (configuration not stated) displayed a melting point of 75 to 77 °C.

`Cn1c(C(F)(F)F)cc(=O)n(-c2cc(OCCOCCCl)c(Cl)cc2F)c1=O` gave a melting point of 191 to 193 °C.

`COc1cc(NC(C)=O)cc(OC)c1-c1ccc(C[C@H](NC(=O)c2c(Cl)cccc2Cl)C(=O)O)cc1`: the melting point lay within 243 to 244 °C.

In turn, `Fc1ccc(Nc2ncnc3cnc(NC4CCNCC4)nc23)cc1Cl` showed a melting point of 239 to 243 °C.

In the case of `O=C(CC1CCCC1)Nc1c(C(O)(C(F)(F)F)C(F)(F)F)ccc2ccccc12`, the melting point is 144 to 145 °C.

The compound `Cc1ccc(C2(CNC(=O)Nc3c(C(C)C)cccc3C(C)C)CCC2)cc1` gave a melting point of 166 to 168 °C.

As to `COc1ccc(C(=O)Nc2ccc(Cl)c(Cl)c2)cc1NCc1cccc(F)c1`, the melting point fell in the range of 153 to 155 °C.

In the case of `O=C(O)COc1c(-c2cccc(Cl)c2)cc(C(=O)NCCCCCCCCn2ccc3cc(F)ccc32)cc1-c1cccc(Cl)c1`, the melting point was in the range of 141 to 144 °C.

With `CCOC(=O)C1=CC(NC(=NC(=O)OC(C)(C)C)NC(=O)OC(C)(C)C)C(NC(C)=O)C(C(O)C2COC(C)(C)O2)O1` (configuration not stated), the melting point was 118 to 120 °C.

`CCOCc1nc2c(N)nc3ccccc3c2n1CCOCc1ccccc1` returned a melting point of 144 to 146 °C.

The compound `CCOC(=O)c1cn(Cc2ccccc2)nc1OCc1ccc(OCc2nc(-c3ccccc3)oc2C)cc1` showed a melting point of 99 to 100 °C.

As for `CCc1cc2ccccn2c1`, the melting point fell in the range of 42 to 44 °C.

The compound `O=C(O)CCCc1cccc(C(=O)c2ccccc2)c1` registered a melting point of 71 °C.

As for `CC1(C)CCC(C)(C)c2cc(S(=O)(=O)c3ccc(C(=O)O)cc3)ccc21`, the melting point lay within 218 to 220 °C.

For the compound `N#CCCC(C#N)CSc1ccc2ccccc2c1` (configuration not stated), the melting point was in the range of 52 to 55 °C.

In the case of `O=C(O)c1ccc(CCCCCc2ccccc2)cc1`, the melting point is 80 to 80.5 °C.

`CC1CNc2nc3c(N)nc4ccccc4c3n21` (configuration not stated) showed a melting point of 265 to 273 °C.

`Oc1cc2c(cc1CNc1ccc(F)cc1F)OCC2`: the melting point fell in the range of 119 to 121 °C.

`CCCCNC(=O)[C@H](C)C[C@H](O)[C@H](CC1CCCCC1)NC(=O)[C@H](Cc1cscn1)NC(=O)OC(C)(C)C` displayed a melting point of 172 to 174 °C.

Turning to `O=C1CCC(N2C(=O)c3cccc(NC(=O)c4cccc(F)c4)c3C2=O)C(=O)N1` (configuration not stated), the melting point lay within 260 to 262 °C.

Regarding `CCn1ncc2c1ncc1c(Cl)nc3ncnn3c12`, the melting point was 196 to 197 °C.

Compound `OCc1nn(-c2ccccc2Cl)cc1-c1ccccc1` showed a melting point of 132 °C.

On to `OCc1cccc2cc(-c3ccccc3)sc12`, for which the melting point fell in the range of 125 to 126 °C.

For the compound `CN(C(CCN1C(=O)c2ccccc2C1=O)C(=O)O)S(=O)(=O)c1ccc(Oc2ccc(Cl)cc2)cc1` (configuration not stated), the melting point is 166 to 167 °C.

In the case of `Cc1c(C)c2c(c(C)c1NC(=O)c1ccccc1)C(c1ccc(C(C)C)cc1)C(C)(C)O2` (configuration not stated), the melting point was 218 to 220 °C.

`Cc1nnc2ccc(-c3cccnc3)cn12` registered a melting point of 199 to 202 °C.

In the case of `Cc1ccc2sc3cc(C(=O)Cl)ccc3c2c1`, the melting point is 127 to 128 °C.

Turning to `CCCCc1oc2ccccc2c1C(=O)NCc1ccc2c(-c3ccc(C)cc3)c(OCC#N)ccc2c1`, the melting point lay in the range of 114 to 117 °C.

`COc1cccc2c1OC(C(=O)Nc1ccncc1)C2CC(=O)OCc1ccccc1` (configuration not stated): the melting point lay within 165 to 166 °C.

With `Cc1cccc(C2CCN(C(=O)CCC(=O)c3ccc4c(c3)CCNCC4)CC2)c1`, the melting point lay in the range of 91 to 93 °C.

For `CSC(=C(N)c1ccc2oc(C)cc2c1)S(C)=O` (configuration not stated), the melting point lay in the range of 185 to 186 °C.

For the compound `OC(COc1ccc(Cl)cc1)CSCc1ccc(Cl)cc1` (configuration not stated), the melting point was in the range of 107 to 108 °C.

Compound `FC(F)c1cn(-c2c(Cl)cc(C(F)(F)F)cc2Cl)nc1C(F)(F)F` returned a melting point of 88 to 90 °C.

In turn, `CCCCNC(=O)N(C)c1cccc(-c2ccc(C=C(OCC)C(=O)O)cc2)c1` had a melting point of 126 °C.

For the compound `O=CN(O)C(CC1CCS(=O)(=O)CC1)CS(=O)(=O)c1ccc(Oc2ccc(OC(F)(F)F)cc2)cc1` (configuration not stated), the melting point lay within 143 to 144 °C.

As to `COc1ccccc1-n1c(=O)[nH]c2c(C(N)=O)nc(-c3ccc4cc[nH]c4c3)nc21`, the melting point is 203 to 204 °C.

Compound `C/C(=C\c1ccc(OC(C)C)cc1Oc1ncc(C(F)(F)F)cc1Cl)C(=O)O` showed a melting point of 114 °C.

The compound `CCN1c2ncc(OCc3ccccc3)cc2C(=O)N(C)c2ccc(Cl)nc21` displayed a melting point of 159 to 160 °C.

Regarding `CN1CCC(C)(O)C(C)(C)C1Cc1ccccc1` (configuration not stated), the melting point was 95 to 103 °C.

In the case of `O=C(O)/C=C/c1ccn(C2CCCCCC2)c1`, the melting point is 138 to 140 °C.

Turning to `CCC(=O)c1ccc(Oc2ccc(-c3scc(-c4ccccc4Cl)c3CC(=O)N=C(N)N)cc2)cc1`, the melting point was in the range of 123 to 124 °C.

As to `COc1c(N2C[C@@H](N)[C@@H](C)C2)c(F)cc2c(=O)c(C(=O)O)cn(C3CC3)c12` (relative stereo), the melting point was in the range of 192 to 194 °C.

As for `CC(C)[C@H](NC(=O)CN)c1nc2c(C(F)(F)F)cccc2c(O)c1C(=O)Nc1nccs1`, the melting point turned out to be 230 °C.

`Cc1cc([N+](=O)[O-])ccc1NCCCn1ccnc1`: the melting point worked out at 163 °C.

Compound `CC1(N)CN(c2c(F)cc3c(=O)c(C(=O)O)cn(-c4nc(N)c(F)cc4F)c3c2Cl)C1` displayed a melting point of 280 °C.

The compound `COC(=O)c1ccc(S(=O)(=O)C2CCN(CCc3ccc(F)cc3F)CC2)cc1` gave a melting point of 123 to 124 °C.

Take `OC(CCCN1CCC(O)(c2ccc(Cl)cc2)CC1)c1ccc(F)cc1` (configuration not stated): the melting point is 128 to 130 °C.

For the compound `COc1ccnc(CCc2nc3cc(-c4ccc(S(=O)(=O)N5CCN(c6ccccc6)CC5)cc4)cnc3[nH]2)c1`, the melting point is 218 to 220 °C.

With `Cc1c(F)cc(C(=O)OC(C)(C)C)cc1I`, the melting point lay within 77 to 80 °C.

Compound `CSc1cc(C)nc(SC)c1NC(=O)CCCCCCSc1nc2cccc(C(F)(F)F)c2o1` showed a melting point of 129 to 131 °C.

Compound `NCCOc1cc(Cl)cc([N+](=O)[O-])c1N` returned a melting point of 156 to 157 °C.

Turning to `COc1cc2c(c3c1OC(C)(C)C3)C(c1cccc(N3CCNS3(=O)=O)c1)=NC(C)(C)C2`, the melting point was 145 to 147 °C.

Turning to `c1ccc2c(c1)C[C@H]1CSC(=Nc3csc4ncccc34)N1C2`, the melting point was in the range of 145 to 146 °C.

In the case of `Cn1cc(-c2ccc(Cl)cc2)c(=O)c(-c2cccc(C(F)(F)F)c2)c1`, the melting point lay in the range of 153 to 155 °C.

Turning to `CN1C(=O)C2C3CCC(C2C1=O)N1COc2ccccc2N=C31` (configuration not stated), the melting point was in the range of 222 to 224 °C.
